What was measured:
[1] = Determination of aldehyde capture rate (nonenal as model aldehyde, HPLC quantification); conditions: for Capture rate (slope of the capture curve per unit time): higher absolute value of the slope = higher capture rate; for Aldehyde consumption (100%): nonenal 0.025 mM, compound 0.05 mM, room temperature
Description: In the aldehyde capture test disclosed in the present invention, the stable lipid metabolite, nonenal, was used as the model aldehyde to react with the compound of the Example. The specific protocol was as follows.
0.05 mM of the compounds of the Examples of the present invention were precisely weighed respectively and dissolved in 1.2 mL of a mixed solution (v/v=1:1) of triolein (Aladdin, G105172-5g) and linoleic acid (Aladdin, L100442-25g), respectively. 2.5 mL of PBS (Solarbio) solution containing 20% Captisol® (Aladdin, C125030-25g) was added, and the solution was stirred at room temperature overnight. After the example compound was completely dissolved, 0.025 mM nonenal (Sigma, 255653-5G) was added, and the solution was stirred vigorously at room temperature. 200 μL of the sample was added to 800 μL of acetonitrile (Fisher, A995) at 0, 45, 90, 180, 225 and 465 minutes, respectively. The solution was mixed vigorously by vortex for 2 minutes, and centrifuged at a low speed of 1000 r/min for 3 minutes. The supernatant was transferred to an injection vial. The nonenal in the reaction mixture was analyzed quantitatively by high performance liquid chromatography. The adduct resulted from the example compound of the present invention and nonenal was analyzed qualitatively by high performance liquid chromatography-mass spectrometry.
In the developed detection method, the retention time of the model aldehyde nonenal was 2.42 minutes.

[2] = test system: noninfectious uveitis animal model (lewis rats); experiment: Therapeutic effect in lipopolysaccharide-induced noninfectious uveitis animal model; type: in vivo, rat
Description: Female lewis rats were used as the research subjects. Lewis rats (Vital River) were randomly divided into groups (4 animals per group, a total of 8 eyes). The groups are as follows: normal control group, model control group, and example administration group. The inflammation model was established in these groups except for the normal control group.
(2) Formulation of drug solution: 10 mg of the compound of Example 4 of the present invention was weighed and dissolved in 1 mL of the vehicle stock solution, and the resulting solution was made up to 2 mL with water for injection. The content of each substance is as follows: Na2HPO4.12H2O 0.83%, NaH2PO4.2H2O 0.017%, ρ-cyclodextrin 9.5%, PEG-400 5.0%, active compound 0.5%.
The animal model was a noninfectious uveitis animal model established by intraperitoneal injection of lipopolysaccharide (derived from Escherichia coli, 055:B5, Sigma, L2880-100MG, injection dose: 2 mg/kg). At the same time of modeling, drug administration was carried out according to the above grouping situation. The normal control group was administered with normal saline, the model control group was administered with blank vehicle, and the example administration group was administered with the eye drops formulated above. The drug was administered by eye instillation to both eyes of each animal, and the eye instillation dose was 20 μL/eye. After the completion of eye instillation, the eyelids were closed for 20 seconds to prevent the loss of the drug. The administration was repeated at 3, 6 and 23 hours after modeling. […] The ocular inflammation of the animals in each group was examined with a slit lamp microscope (Jiangxi Jiangfeng, LYL-S), and evaluated according to the McDonald-Shadduck scoring system (GB/T 28538-2012).
The animals were sacrificed, and the bilateral eyeballs were enucleated. […] Quantitative analysis of total protein in aqueous humor was performed on the supernatant by a BCA protein quantification kit (Beyotime, P0010).

[3] = test system: C48/80-induced allergic conjunctivitis (Wistar rats); experiment: Therapeutic effect in C48/80-induced allergic conjunctivitis animal model; type: in vivo, rat; conditions: female Wistar rats, C48/80 on cornea; 10 μL per eye 10 minutes after stimulation; examined 20 minutes after administration
From the text: C48/80 is a polymer formed by the condensation of N-methyl-p-methoxyphenethylamine with formaldehyde, which acts directly on G protein and induces mast cell degranulation. After degranulation, the mast cell releases active substances such as histamine and kinin, which can cause acute type I allergic reactions such as telangiectasia and enhanced permeability. It can cause allergic conjunctivitis if applied topically to the ocular surface.
Female Wistar rats were used as the research subjects. Wistar rats (Vital River) were randomly divided into groups (5 animals per group, a total of 10 eyes). The groups are as follows: normal control group, model control group, positive drug group, and example administration group. The inflammation model was established in these groups except for the normal control group. Emedastine Difumarate Eye Drops (Emadine®, Alcon, H20181192) was used as the positive drug. Model establishment, administration and evaluation processes are as follows. […]
After 10 minutes of stimulation, different drug treatments were carried out according to the group settings. […] The clinical score was evaluated individually on the eyes of each animal according to the McDonald-Shadduck scoring system (GB/T 28538-2012).

## CC(C)(O)c1cc2cc3c(cc2cc1N)OCCOCCOCCO3 [Example 8, 2-(14-amino-2,3,5,6,8,9-hexahydronaphtho[2,3-b][1,4,7,10]tetraoxacyclododecin-13-yl) propan-2-ol]
[1]; 225 minutes
  Capture rate (slope of the capture curve per unit time): −0.07
  Aldehyde consumption (100%): 19.78%
[1]; 465 minutes
  Capture rate (slope of the capture curve per unit time): −0.04
  Aldehyde consumption (100%): 19.82%

## CC(C)(O)c1cc2cc3c(cc2cc1N)OCO3 [Example 4, 2-(7-aminonaphtho[2,3-d][1,3]dioxol-6-yl)propan-2-ol]
[2]; female lewis rats, LPS 2 mg/kg i.p., 0.5% eye drops 20 μL/eye at 0, 3, 6, 23 h, 24 hours after modeling, BCA, mean ± standard deviation
  Protein concentration in aqueous humor: 840.6 ± 449.7 µg/mL
[2]; female lewis rats, LPS 2 mg/kg i.p., 0.5% eye drops 20 μL/eye at 0, 3, 6, 23 h, 24 hours after modeling, mean ± standard deviation
  Ocular score (McDonald-Shadduck scoring system): 8.4 ± 2.8
[2]; lewis rats, LPS-induced uveitis, eye drops
  Therapeutic effect in the ocular inflammation animal model (score and aqueous humor protein, in words): showing a therapeutic effect
[3]
  Therapeutic effect on allergic conjunctivitis (McDonald-Shadduck clinical score, FIG. 2): good therapeutic effect
[1]; 225 minutes
  Capture rate (slope of the capture curve per unit time): −0.25
  Aldehyde consumption (100%): 52.65%
[1]; 465 minutes
  Capture rate (slope of the capture curve per unit time): −0.14
  Aldehyde consumption (100%): 66.62%

## CC(C)(O)c1nc2cc3c(cc2cc1N)OCO3 [Example 1, 2-(7-amino-[1,3]dioxolo[4,5-g]quinolin-6-yl)propan-2-ol]
[1]; 225 minutes
  Capture rate (slope of the capture curve per unit time): −0.05
  Aldehyde consumption (100%): 10.73%
[1]; 465 minutes
  Capture rate (slope of the capture curve per unit time): −0.04
  Aldehyde consumption (100%): 18.43%

## Cc1nc2cc3nc(C(C)(C)O)c(N)cc3cc2o1 [Example 2, 2-(7-amino-2-methyloxazolo[5,4-g]quinolin-6-yl)propan-2-ol]
[1]; 225 minutes
  Capture rate (slope of the capture curve per unit time): −0.06
  Aldehyde consumption (100%): 11.99%
[1]; 465 minutes
  Capture rate (slope of the capture curve per unit time): −0.03
  Aldehyde consumption (100%): 12.11%

## CC(C)(O)c1nc2cc3oc(N4CCOCC4)nc3cc2cc1N [Example 7, 2-(7-amino-2-morpholinooxazolo[4,5-g]quinolin-6-yl)propan-2-ol]
[1]; 225 minutes
  Capture rate (slope of the capture curve per unit time): −0.03
  Aldehyde consumption (100%): 7.12%
[1]; 465 minutes
  Capture rate (slope of the capture curve per unit time): −0.01
  Aldehyde consumption (100%): 8.34%

## Cn1cnc2cc3cc(N)c(C(C)(C)O)nc3cc21 [Example 5, 2-(7-amino-3-methyl-3H-imidazo[4,5-g]quinolin-6-yl)propan-2-ol]
[1]; 225 minutes
  Capture rate (slope of the capture curve per unit time): −0.08
  Aldehyde consumption (100%): 20.02%
[1]; 465 minutes
  Capture rate (slope of the capture curve per unit time): −0.08
  Aldehyde consumption (100%): 36.01%

## Nc1cc2cc3c(cc2cc1C1(O)CC1)OCO3 [Example 9, 1-(7-aminonaphtho[2,3-d][1,3]dioxol-6-yl)cyclopropan-1-ol]
[1]; 225 minutes
  Capture rate (slope of the capture curve per unit time): −0.06
  Aldehyde consumption (100%): 15.43%
[1]; 465 minutes
  Capture rate (slope of the capture curve per unit time): −0.03
  Aldehyde consumption (100%): 16.60%

## CC(C)(O)c1cc2cc3c(cc2cc1N)OCCO3 [Example 6, 2-(8-amino-2,3-dihydronaphtho[2,3-b][1,4]dioxin-7-yl)propan-2-ol]
[1]; 225 minutes
  Capture rate (slope of the capture curve per unit time): −0.07
  Aldehyde consumption (100%): 16.48%
[1]; 465 minutes
  Capture rate (slope of the capture curve per unit time): −0.05
  Aldehyde consumption (100%): 22.01%

## CC(C)(O)c1nc2cc3nc(N4CCOCC4)oc3cc2cc1N [Example 3, 2-(7-amino-2-morpholinooxazolo[5,4-g]quinolin-6-yl)propan-2-ol]
[1]; 225 minutes
  Capture rate (slope of the capture curve per unit time): −0.17
  Aldehyde consumption (100%): 35.38%
[1]; 465 minutes
  Capture rate (slope of the capture curve per unit time): −0.10
  Aldehyde consumption (100%): 43.67%
